Reference: patent US20250114389A1, “NUCLEOSIDES AND NUCLEOTIDES ANALOGS AS ANTIVIRAL AGENTS” (Emory University, priority 2021, published 2025)

Experiments:
Omicron [1] = assay: microbe, parasite or virus in culture
Omicron [2] = assay: Anti-Omicron activity in Calu-3; type: cell-based, SARS-CoV-2; details: Severe acute respiratory syndrome coronavirus 2
SARS-CoV-2 [3] = assay: Anti-SARS-CoV-2 activity in Caco2 cells (virus yield inhibition); details: for EC50: Severe acute respiratory syndrome coronavirus 2, Caco-2, read-out: Anti-SARS-CoV-2 Activity (Caco2) EC50; for EC90: Severe acute respiratory syndrome coronavirus 2, Caco-2, read-out: Anti-SARS-CoV-2 Activity (Caco2) EC90
SARS-CoV-2 [4] = assay: Anti-SARS-CoV-2 activity in Calu3 cells (virus yield inhibition); type: cell-based; details: Severe acute respiratory syndrome coronavirus 2, Calu-3, Table 1
SARS-CoV-2 [5] = assay: Anti-SARS-CoV-2 activity in Vero cells (virus yield inhibition); type: cell-based
SARS-CoV-2 [6] = assay: Anti-SARS-CoV-2 activity in Calu3 ALI culture; type: cell-based; details: Severe acute respiratory syndrome coronavirus 2, Calu-3; Calu3 air-liquid interface
human PBM cells = assay: Cytotoxicity in PBM cells; type: cell-based
Experimental: (§1) The toxicity of the compounds was assessed in Vero, human PBM, CEM (human lymphoblastoid), MT-2, and HepG2 cells, as described previously (see Schinazi R. F., Sommadossi J.-P., Saalmann V., Cannon D. L., Xie M.-Y., Hart G. C., Smith G. A. & Hahn E. F. Antimicrob. Agents Chemother. 1990, 34, 1061-67). Cycloheximide was included as positive cytotoxic control, and untreated cells exposed to solvent were included as negative controls. The cytotoxicity IC50 was obtained from the concentration-response curve using the median effective method described previously (see Chou T.-C. & Talalay P. Adv. Enzyme Regul. 1984, 22, 27-55; Belen'kii M. S. & Schinazi R. F. Antiviral Res. 1994, 25, 1-11).

[7] = Cytotoxicity in Vero cells; details: African green monkey, Vero kidney cells
Huh7 cells = assay: Cytotoxicity in Huh7 cells; type: cell-based
[8] = test system: CEM (human lymphoblastoid) cells; assay: Cytotoxicity in CEM cells; type: cell-based
Experimental: as §1

SARS-CoV-2 [9] = assay: Anti-SARS-CoV-2 activity in HAE-ALI culture; type: cell-based; details: Severe acute respiratory syndrome coronavirus 2; HAE air-liquid interface
Caco2 cells = details: read-out: Cytotoxicity CC50 Caco2
Calu3 cells = details: read-out: Cytotoxicity CC50 Calu3
[10] = Cytotoxicity in PBM cells; type: cell-based, human; details: human
Experimental: as §1

[11] = Cytotoxicity in Huh7 cells; type: cell-based; details: human
[12] = Cytotoxicity in CEM cells; type: cell-based, human; details: human, CEM lymphoblastoid cells
Experimental: as §1

[13] = type: in vitro ADME; details: hamster, 10 μM
Experimental: An aliquot of 450 μL of human, mouse or hamster plasma were exposed to 10 μM of compound and incubated at 37° C. At 0, 5, 15, 30, 60, 90 and 120 min, 50 μL of plasma sample was mixed with 200 μL of ice-cold methanol (70%). 50 μL supernatant was dried and reconstituted in 100 μL H2O. Propantheline bromide was used as positive control. The supernatant was then subjected to LC-MS analysis (LC-MS condition: Instrument: Thermo TSQ Quantiva. Column: Kinetex […] (50×2.1 mm, […]). LC buffers: A): 0.1% formic acid, and B): acetonitrile. MRM methods: (269.2-112 positive), Indinavir (IS, 614.4-421.2 positive, IS)). The stability results are shown in FIGS. 2-4 (human plasma, mouse plasma and hamster plasma, respectively). Compound A is stable in human and mouse plasma up to 2 hours and stable up to […] in hamster plasma. Compound 23 was converted to compound A in hamster plasma in less than 5 min.

Vero cells = assay: Cytotoxicity in Vero cells; details: read-out: Cytotoxicity CC50 Vero; Vero cells
[14] = Severe acute respiratory syndrome coronavirus 2, Table 1, read-out: Anti-SARS-CoV-2 Activity (Vero) EC50
[15] = Severe acute respiratory syndrome coronavirus 2, Table 1, read-out: Anti-SARS-CoV-2 Activity (Vero) EC90
[16] = Severe acute respiratory syndrome coronavirus 2, Table 2, read-out: Anti-SARS-CoV-2 activity in Vero cells EC50
[17] = Severe acute respiratory syndrome coronavirus 2, Table 2, read-out: Anti-SARS-CoV-2 activity in Vero cells EC90

Structure (SMILES) | EC50 (SARS-CoV-2 [3]) | EC90 (SARS-CoV-2 [3]) | EC50 (SARS-CoV-2 [4]) | EC90 (SARS-CoV-2 [4]) | EC50 (SARS-CoV-2 [5]; [14]) | EC90 (SARS-CoV-2 [5]; [15]) | CC50 [7] | also measured
N#C[C@@]1(n2ccc(=O)[nH]c2=O)O[C@H](CO)C(O)C1O (stereo partly shown) [drawing 137] |  |  |  |  |  |  |  | EC50 (Omicron [1]; Severe acute respiratory syndrome coronavirus 2, Caco-2, read-out: Anti-Omicron Activity (Caco-2) EC50): > 10 µM; EC90 (Omicron [1]; Severe acute respiratory syndrome coronavirus 2, Caco-2, read-out: Anti-Omicron Activity (Caco-2) EC90): > 10 µM; EC50 (Omicron [2]): 3.8 µM; EC90 (Omicron [2]): > 10 µM
N#C[C@@]1(n2ccc(=O)[nH]c2=O)O[C@H](CO)C(O)C1O (stereo partly shown) [drawing 119] | 0.02 µM | 0.2 µM | 0.08 µM | 0.7 µM | 4.7 µM | 8.5 µM |  | 
CCC(CC)COC(=O)[C@H](C)N[P@](=O)(OC[C@H]1O[C@@](C#N)(c2ccc3c(N)ncnn23)[C@H](O)[C@@H]1O)Oc1ccccc1 [Remdesivir, reference compound] | 0.004 µM | 0.04 µM |  | 0.6 µM | 1 µM | 3.5 µM | > 100 µM | EC50 (SARS-CoV-2 [6]): 0.9 µM; EC90 (SARS-CoV-2 [6]): 4.6 µM; CC50 (human PBM cells): 6.4 µM; EC50 (SARS-CoV-2 [5]; [16]): 1.2 µM; EC90 (SARS-CoV-2 [5]; [17]): 3.6 µM; CC50 (Huh7 cells): 1.5 µM; CC50 [8]: 12 µM; EC90 (SARS-CoV-2 [9]): 1.2 µM
C[C@@H]1C[C@@H]([C@H](O)CC2CC(=O)NC(=O)C2)C(=O)[C@@H](C)C1 [Cyclohexamide] |  |  |  |  |  |  |  | CC50 (Caco2 cells): 10 µM; CC50 (Calu3 cells): 10 µM
N#C[C@]1(c2ccc3c(N)ncnn23)O[C@@H](CO)C(O)C1O (stereo partly shown) |  |  |  |  |  |  |  | EC50 (SARS-CoV-2 [5]; [16]): > 10 µM
CC(C)[C@H](N)C(=O)OC1C(O)[C@](C#N)(n2ccc(N)nc2=O)O[C@@H]1CO (stereo partly shown) [drawing 135] |  |  |  |  |  |  | 93.5 µM | CC50 [10]: > 100 µM
CC(C)[C@H](N)C(=O)OC1C(O)[C@](C#N)(n2ccc(N)nc2=O)O[C@@H]1CO (stereo partly shown) [drawing 124] | 3.3 µM | 8.3 µM | 0.3 µM | 4.3 µM | 2.3 µM | 6.6 µM |  | 
CCCCCCCC(=O)OC[C@H]1O[C@@](C#N)(n2ccc(N)nc2=O)C(O)C1O (stereo partly shown) [drawing 134] |  |  |  |  |  |  | 45.7 µM | CC50 [10]: > 100 µM; CC50 [11]: 77.8 µM; CC50 [12]: 3.7 µM
CC(C)OC(=O)[C@H](C)N[P@](=O)(OC[C@H]1O[C@@](C#N)(n2ccc(N)nc2=O)C(O)C1O)Oc1ccccc1 (stereo partly shown) [drawing 120] | 0.7 µM | 2.1 µM | > 10 µM | > 10 µM | > 10 µM | > 10 µM |  | 
CCCCCCCC(=O)OC[C@H]1O[C@@](C#N)(n2ccc(N)nc2=O)C(O)C1O (stereo partly shown) [drawing 123] | 0.7 µM | 1.7 µM | 0.2 µM | 1.2 µM | 0.4 µM | 1.1 µM |  | 
CC(C)C(=O)OC[C@H]1O[C@@](C#N)(n2ccc(N)nc2=O)[C@H](O)[C@@H]1O [Compound 23, ((2R,3S,4R,5R)-5-(4-Amino-2-oxopyrimidin-1(2H)-yl)-5-cyano-3,4-dihydroxytetrahydro-furan-2-yl)methyl isobutyrate] |  |  |  |  |  |  |  | time for conversion to compound A in plasma [13]: less than 5 min
N#C[C@@]1(n2ccc(=O)[nH]c2=O)O[C@H](CO)C(O)C1O (stereo partly shown) [drawing 130] |  |  |  |  |  |  | > 100 µM | CC50 [10]: > 100 µM; CC50 [11]: > 100 µM; CC50 [12]: 12.1 µM
CC(C)C(=O)OC[C@H]1O[C@@](C#N)(n2ccc(=O)[nH]c2=O)C(O)C1O (stereo partly shown) [drawing 121] | 2.1 µM | 5.7 µM | 0.2 µM | 0.7 µM | > 10 µM |  |  | 
N#C[C@@]1(c2ccc3c(N)ncnn23)O[C@H](CO)C(O)C1O (stereo partly shown) |  |  |  |  |  |  |  | EC50 (SARS-CoV-2 [5]; [16]): < 10 µM
CCC(CC)COC(=O)[C@H](C)N[P@](=O)(OC[C@@H]1O[C@](C#N)(c2ccc3c(N)ncnn23)C(O)C1O)Oc1ccccc1 (stereo partly shown) |  |  |  |  |  |  |  | EC50 (SARS-CoV-2 [5]; [16]): < 10 µM
CC(C)OC(=O)[C@H](C)N[P@](=O)(OC[C@H]1O[C@@](C#N)(n2ccc(N)nc2=O)C(O)C1O)Oc1ccccc1 (stereo partly shown) [drawing 131] |  |  |  |  |  |  | > 100 µM | CC50 [10]: > 100 µM; CC50 [11]: > 100 µM; CC50 [12]: > 100 µM
N#C[C@@]1(n2ncc(N)nc2=O)O[C@H](CO)C(O)C1O (stereo partly shown) |  |  |  |  |  |  |  | EC50 (SARS-CoV-2 [5]; [16]): 4 µM; EC90 (SARS-CoV-2 [5]; [17]): 9.8 µM
CC(C)C(=O)OC[C@H]1O[C@@](C#N)(n2ccc(=O)[nH]c2=O)C(O)C1O (stereo partly shown) [drawing 132] |  |  |  |  |  |  | > 100 µM | CC50 [10]: > 100 µM; CC50 [11]: 88.9 µM; CC50 [12]: 39 µM
CC(C)C(=O)OC[C@H]1O[C@@](C#N)(n2ccc(N)nc2=O)C(O)C1O (stereo partly shown) [drawing 133] |  |  |  |  |  |  | 73.8 µM | CC50 [10]: 63.1 µM; CC50 [11]: > 100 µM; CC50 [12]: 15.8 µM
CC(C)C(=O)OC[C@H]1O[C@@](C#N)(n2ccc(N)nc2=O)C(O)C1O (stereo partly shown) [drawing 122] | 0.5 µM | 2.5 µM | 1.2 µM | 4 µM | 1.2 µM | 2.2 µM |  | 
O=c1nc(NO)ccn1[C@@H]1O[C@H](CO)[C@@H](O)[C@H]1O [NHC, N^4-hydroxycytidine, reference compound] | 1 µM | > 10 µM | 0.6 µM | 2 µM | 0.2 µM | 0.42 µM |  | CC50 (Vero cells): 16.5 µM; CC50 [8]: 2.6 µM
